# Target: T1, Human PDE10 (Homo sapiens, UniProt Q9Y233)
# T1 construct: purchased BPA Bioscience (so in the source)
# Test: Human PDE10 inhibitory effect (IMAP TR-FRET enzyme inhibition assay)
# Type: biochemical
# Details: PDE10 inhibitory activity, cAMP substrate
# Experimental: (Evaluation of Enzyme Inhibitory Activity: Human PDE10 Inhibitory Effect)
# IMAP TR-FRET Phosphodiersterase Evaluation Assay Kit (Molecular Device) was used for the measurement. Ten μL of a diluted test compound having each concentration and 5 μL of the enzyme PDE10 (BPA Bioscience) that had been diluted to 2 ng/mL with 1×IMAP Reaction Buffer (prepared with 5× included with the kit, 10 mM Tris-HCl, pH=7.2, 10 mM MgCl2, 0.05% NaN3, and 0.1% BSA) containing 0.1% BSA were added to a 384-well plate (Corning). The obtained mixture was then pre-incubated at room temperature for 5 minutes. Thereafter, 5 μL of cAMP substrate solution which was included with the kit and diluted to 400 nM with 1×IMAP Reaction Buffer containing 0.1% BSA, was added to the reaction solution, and the obtained mixture was reacted at room temperature for 60 minutes. Thereafter, 60 μL of an IMAP TR-FRET Binding solution included with the kit was further added to the reaction solution, and the obtained mixture was then left for 3 hours or more. Subsequently, using ARVO SX (PerkinElmer), the fluorescent intensity of Terbium (Emission=490 nm) and TR-FRET (Emission=520 nm) in the reaction solution were measured at an excitation wavelength of 340 nm, so as to calculate the amount of the generated 5′-AMP. The count of a well to which a solvent had been added instead of the test compound was set at 0%, and the count of a well to which the enzyme PDE10 had not been added was set at 100%. Thus, the inhibitory activity of each test compound was calculated.
# The PDE10 inhibitory activity of the test compound was indicated with an IC50 value. […] The test compounds are shown in Table 3 (Table 3-1 and Table 3-2).
# T1 sequence (Q9Y233 whole entry): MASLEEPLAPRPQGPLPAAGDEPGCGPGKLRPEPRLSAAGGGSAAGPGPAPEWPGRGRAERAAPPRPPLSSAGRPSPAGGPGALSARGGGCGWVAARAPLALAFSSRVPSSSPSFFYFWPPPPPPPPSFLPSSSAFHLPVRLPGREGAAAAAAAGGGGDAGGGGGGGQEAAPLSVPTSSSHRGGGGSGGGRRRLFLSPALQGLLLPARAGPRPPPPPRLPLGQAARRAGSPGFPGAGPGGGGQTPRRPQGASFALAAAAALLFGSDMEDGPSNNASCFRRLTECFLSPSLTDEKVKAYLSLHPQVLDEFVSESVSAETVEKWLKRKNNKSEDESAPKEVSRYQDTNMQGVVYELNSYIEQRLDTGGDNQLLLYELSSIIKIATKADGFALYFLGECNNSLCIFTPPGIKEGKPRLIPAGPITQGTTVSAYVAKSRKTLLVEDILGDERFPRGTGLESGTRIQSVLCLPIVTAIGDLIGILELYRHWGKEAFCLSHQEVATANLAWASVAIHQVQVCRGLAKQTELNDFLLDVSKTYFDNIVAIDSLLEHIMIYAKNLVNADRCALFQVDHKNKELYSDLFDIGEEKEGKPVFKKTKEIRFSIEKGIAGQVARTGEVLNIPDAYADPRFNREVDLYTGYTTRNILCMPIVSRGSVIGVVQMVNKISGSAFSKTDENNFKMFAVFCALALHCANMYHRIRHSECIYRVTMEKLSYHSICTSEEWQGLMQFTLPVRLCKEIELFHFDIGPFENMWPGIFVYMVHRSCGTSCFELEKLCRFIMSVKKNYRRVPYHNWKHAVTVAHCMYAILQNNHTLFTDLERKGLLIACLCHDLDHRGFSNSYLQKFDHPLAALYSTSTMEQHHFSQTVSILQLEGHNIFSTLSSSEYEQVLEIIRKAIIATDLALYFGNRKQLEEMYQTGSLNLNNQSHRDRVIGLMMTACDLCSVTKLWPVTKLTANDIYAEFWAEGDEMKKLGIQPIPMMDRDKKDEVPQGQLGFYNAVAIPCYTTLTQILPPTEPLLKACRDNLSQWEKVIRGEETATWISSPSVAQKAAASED
row,Structure (SMILES),IC50 [nM]
1,"Cc1sc(-c2cnn(C)c2C(=O)NC2CCn3nc(-c4ccccc4)nc3C2)nc1C(F)F (stereo not drawn) [Example 5.1, 4-(4-(difluoromethyl)-5-methylthiazol-2-yl)-1-methyl-N-(2-phenyl-5,6,7,8-tetrahydro-[1,2,4]triazolo[1,5-a]pyridin-7-yl)-1H-pyrazole-5-carboxamide]",< 5
2,"Cc1nnc(-c2cnn(C)c2C(=O)NC2CCn3cc(-c4ccccc4)nc3C2)s1 (stereo not drawn) [Example 2.10, 1-methyl-4-(5-methyl-1,3,4-thiadiazol-2-yl)-N-(2-phenyl-5,6,7,8-tetrahydroimidazo[1,2-a]pyridin-7-yl)-1H-pyrazole-5-carboxamide]",< 5
3,"Cc1cccc(-c2cnn(C)c2C(=O)NC2CCn3nc(N4CCCC4)nc3C2)n1 (stereo not drawn) [Example 5.47, 1-methyl-4-(6-methylpyridin-2-yl)-N-(2-(pyrrolidin-1-yl)-5,6,7,8-tetrahydro-[1,2,4]triazolo[1,5-a]pyridin-7-yl)-1H-pyrazole-5-carboxamide]",5 to 100
4,"Cc1cncc(-c2cnn(C)c2C(=O)NC2CCn3cc(-c4cccc(F)c4)nc3C2)n1 (stereo not drawn) [Example 2.24, N-(2-(3-fluorophenyl)-5,6,7,8-tetrahydroimidazo[1,2-a]pyridin-7-yl)-1-methyl-4-(6-methylpyrazin-2-yl)-1H-pyrazole-5-carboxamide]",5 to 100
5,"Cc1nc(-c2cnn(C)c2C(=O)NC2CCn3nc(-c4ccccc4)nc3C2)sc1C (stereo not drawn) [Example 5.4, 4-(4,5-dimethylthiazol-2-yl)-1-methyl-N-(2-phenyl-5,6,7,8-tetrahydro-[1,2,4]triazolo[1,5-a]pyridin-7-yl)-1H-pyrazole-5-carboxamide]",< 5
6,"Cn1ncc(-c2nc(C(F)(F)F)cs2)c1C(=O)NC1CCn2nc(N3CCCC3)nc2C1 (stereo not drawn) [Example 5.46, 1-methyl-N-(2-(pyrrolidin-1-yl)-5,6,7,8-tetrahydro-[1,2,4]triazolo[1,5-a]pyridin-7-yl)-4-(4-(trifluoromethyl)thiazol-2-yl)-1H-pyrazole-5-carboxamide]",< 5
7,"C[C@@H]1CN(c2nc3cc(NC(=O)c4c(-c5nc(C(F)F)c(Cl)s5)cnn4C)ccn3n2)C[C@H](C)O1 [Example 4.36, 4-(5-chloro-4-(difluoromethyl)thiazol-2-yl)-N-(2-((2S,6R)-2,6-dimethylmorpholino)-[1,2,4]triazolo[1,5-a]pyridin-7-yl)-1-methyl-1H-pyrazole-5-carboxamide]",5 to 100
8,"Cc1ncc(C)c(-c2cnn(C)c2C(=O)Nc2cc3nc(-c4ccccc4C)nn3cc2F)n1 [Example 3.50, 4-(2,5-dimethylpyrimidin-4-yl)-N-(6-fluoro-2-(o-tolyl)-[1,2,4]triazolo[1,5-a]pyridin-7-yl)-1-methyl-1H-pyrazole-5-carboxamide]",< 5
9,"Cc1cccc(-c2cnn(C)c2C(=O)Nc2cc3nc(-c4ccccc4)nn3cc2F)n1 [Example 3.3, N-(6-fluoro-2-phenyl-[1,2,4]triazolo[1,5-a]pyridin-7-yl)-1-methyl-4-(6-methylpyridin-2-yl)-1H-pyrazole-5-carboxamide]",< 5
10,"Cn1ncc(-c2nc(C(C)(C)C)cs2)c1C(=O)NC1CCn2cc(-c3ccccc3)nc2C1 (stereo not drawn) [Example 2.27, 4-(4-(tert-butyl)thiazol-2-yl)-1-methyl-N-(2-phenyl-5,6,7,8-tetrahydroimidazo[1,2-a]pyridin-7-yl)-1H-pyrazole-5-carboxamide]",5 to 100
11,"Cn1ncc(-c2nc(C(F)F)c(Cl)s2)c1C(=O)NC1CCn2nc(-c3ccc(F)cc3)nc2C1 (stereo not drawn) [Example 5.3, 4-(5-chloro-4-(difluoromethyl)thiazol-2-yl)-N-(2-(4-fluorophenyl)-5,6,7,8-tetrahydro-[1,2,4]triazolo[1,5-a]pyridin-7-yl)-1-methyl-1H-pyrazole-5-carboxamide]",< 5
12,"Cn1ncc(-c2nc(C(F)F)cs2)c1C(=O)NC1CCn2cc(-c3cccc(F)c3)nc2C1 (stereo not drawn) [Example 2.20, 4-(4-(difluoromethyl)thiazol-2-yl)-N-(2-(3-fluorophenyl)-5,6,7,8-tetrahydroimidazo[1,2-a]pyridin-7-yl)-1-methyl-1H-pyrazole-5-carboxamide]",< 5
13,"Cn1ncc(-c2nc(C(F)F)c(C3CC3)s2)c1C(=O)NC1CCn2nc(-c3cccc(F)c3)nc2C1 (stereo not drawn) [Example 5.42, 4-(5-cyclopropyl-4-(difluoromethyl)thiazol-2-yl)-N-(2-(3-fluorophenyl)-5,6,7,8-tetrahydro-[1,2,4]triazolo[1,5-a]pyridin-7-yl)-1-methyl-1H-pyrazole-5-carboxamide]",5 to 100
14,"Cn1ncc(-c2cccc(C(F)(F)F)n2)c1C(=O)Nc1cc2nc(-c3ccccc3)nn2cc1F [Example 3.10, N-(6-fluoro-2-phenyl-[1,2,4]triazolo[1,5-a]pyridin-7-yl)-1-methyl-4-(6-(trifluoromethyl)pyridin-2-yl)-1H-pyrazole-5-carboxamide]",< 5
15,"Cn1ncc(-c2cccc(C#N)n2)c1C(=O)NC1CCn2nc(-c3ccccc3)nc2C1 (stereo not drawn) [Example 5.40, 4-(6-cyanopyridin-2-yl)-1-methyl-N-(2-phenyl-5,6,7,8-tetrahydro-[1,2,4]triazolo[1,5-a]pyridin-7-yl)-1H-pyrazole-5-carboxamide]",5 to 100
16,"Cc1cccnc1-c1cnn(C)c1C(=O)Nc1cc2nc(-c3ccccc3)nn2cc1F [Example 3.1, N-(6-fluoro-2-phenyl-[1,2,4]triazolo[1,5-a]pyridin-7-yl)-1-methyl-4-(3-methylpyridin-2-yl)-1H-pyrazole-5-carboxamide]",< 5
17,"Cc1cc(C)nc(-c2cnn(C)c2C(=O)Nc2ccn3nc(N4CC[C@H](F)C4)nc3c2)c1 [Example 4.20, (S)-4-(4,6-dimethylpyridin-2-yl)-N-(2-(3-fluoropyrrolidin-1-yl)-[1,2,4]triazolo[1,5-a]pyridin-7-yl)-1-methyl-1H-pyrazole-5-carboxamide]",< 5
18,"Cn1ncc(-c2nc(C(F)F)c(Cl)s2)c1C(=O)Nc1ccn2nc(-c3ccccc3)nc2c1 [Example 3.20, 4-(5-chloro-4-(difluoromethyl)thiazol-2-yl)-1-methyl-N-(2-phenyl-[1,2,4]triazolo[1,5-a]pyridin-7-yl)-1H-pyrazole-5-carboxamide]",< 5
19,"Cn1cnc(-c2cnn(C)c2C(=O)NC2CCn3cc(-c4ccccc4)nc3C2)c1 (stereo not drawn) [Example 2.17, 1-methyl-4-(1-methyl-1H-imidazol-4-yl)-N-(2-phenyl-5,6,7,8-tetrahydroimidazo[1,2-a]pyridin-7-yl)-1H-pyrazole-5-carboxamide]",5 to 100
20,"Cn1ncc(-c2cscn2)c1C(=O)NC1CCn2cc(-c3ccccc3)nc2C1 (stereo not drawn) [Example 2.25, 1-methyl-N-(2-phenyl-5,6,7,8-tetrahydroimidazo[1,2-a]pyridin-7-yl)-4-(thiazol-4-yl)-1H-pyrazole-5-carboxamide]",5 to 100
21,"Cc1nnc(-c2cnn(C)c2C(=O)NC2CCn3cc(-c4cc(F)ccc4F)nc3C2)s1 (stereo not drawn) [Example 2.18, N-(2-(2,5-difluorophenyl)-5,6,7,8-tetrahydroimidazo[1,2-a]pyridin-7-yl)-1-methyl-4-(5-methyl-1,3,4-thiadiazol-2-yl)-1H-pyrazole-5-carboxamide]",5 to 100
22,"Cc1nc(-c2cnn(C)c2C(=O)NC2CCn3nc(-c4ccccc4)nc3C2)c(C)s1 (stereo not drawn) [Example 5.39, 4-(2,5-dimethylthiazol-4-yl)-1-methyl-N-(2-phenyl-5,6,7,8-tetrahydro-[1,2,4]triazolo[1,5-a]pyridin-7-yl)-1H-pyrazole-5-carboxamide]",5 to 100
23,"COc1cc(-c2cnn(C)c2C(=O)Nc2cc3nc(-c4ccccc4)nn3cc2F)nc(OC)n1 [Example 3.40, 4-(2,6-dimethoxypyrimidin-4-yl)-N-(6-fluoro-2-phenyl-[1,2,4]triazolo[1,5-a]pyridin-7-yl)-1-methyl-1H-pyrazole-5-carboxamide]",< 5
24,"Cc1nc(-c2cnn(C)c2C(=O)NC2CCn3nc(-c4ccc(F)cc4)nc3C2)sc1C1CC1 (stereo not drawn) [Example 5.43, 4-(5-cyclopropyl-4-methylthiazol-2-yl)-N-(2-(4-fluorophenyl)-5,6,7,8-tetrahydro-[1,2,4]triazolo[1,5-a]pyridin-7-yl)-1-methyl-1H-pyrazole-5-carboxamide]",5 to 100
25,"Cn1ncc(-c2nc(C(F)F)cs2)c1C(=O)NC1CCn2nc(-c3cccc(F)c3)nc2C1 (stereo not drawn) [Example 5.33, 4-(4-(difluoromethyl)thiazol-2-yl)-N-(2-(3-fluorophenyl)-5,6,7,8-tetrahydro-[1,2,4]triazolo[1,5-a]pyridin-7-yl)-1-methyl-1H-pyrazole-5-carboxamide]",5 to 100
26,"Cc1ccnc(-c2cnn(C)c2C(=O)Nc2ccn3nc(N4CCCC4)nc3c2)c1 [Example 4.30, 1-methyl-4-(4-methylpyridin-2-yl)-N-(2-(pyrrolidin-1-yl)-[1,2,4]triazolo[1,5-a]pyridin-7-yl)-1H-pyrazole-5-carboxamide]",< 5
27,"Cc1ccc(-c2cnn(C)c2C(=O)NC2CCn3cc(-c4ccccc4)nc3C2)nc1 (stereo not drawn) [Example 2.21, 1-methyl-4-(5-methylpyridin-2-yl)-N-(2-phenyl-5,6,7,8-tetrahydroimidazo[1,2-a]pyridin-7-yl)-1H-pyrazole-5-carboxamide]",5 to 100
